Test results published in the supplement of paper PMC10307832.

Tests used:
Assay in all cases: relative viability (nuclei count vs DMSO), 5 days (fraction); higher = more cells survive
[1] = compound: Cc1ccc(C(=O)Nc2ccc(CN3CCN(C)CC3)c(C(F)(F)F)c2)cc1C#Cc1cnc2cccnn12 [Ponatinib] + CS(=O)(=O)CCNCc1ccc(-c2ccc3ncnc(Nc4ccc(OCc5cccc(F)c5)c(Cl)c4)c3c2)o1 [Lapatinib] (partner 2 µM)
Outline: (§1)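 Lung cancer cell lines were seeded in 1536-well plates and dosed by pin tool the next day, with either a single drug or a fixed anchor-drug dose combined with five library-drug doses (not always all listed) spaced in √10 steps. Five days later, one step fixed the cells and stained their nuclei (final 0.05% Triton X-100, 1% formaldehyde, 1 ug/ml Hoechst), and nuclei were counted on 4× images. Relative viability is the nuclei count in treated wells divided by the count in vehicle wells, and each value is the median of duplicate plates.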

[2] = compound: Cc1ccc(Nc2nccc(N(C)c3ccc4c(C)n(C)nc4c3)n2)cc1S(N)(=O)=O [Pazopanib] + Cc1cc(Nc2cc(N3CCN(C)CC3)nc(Sc3ccc(NC(=O)C4CC4)cc3)n2)n[nH]1 [Tozasertib] (partner 0.1 µM)
Outline: as §1

[3] = compound: Cc1ccc(Nc2nccc(N(C)c3ccc4c(C)n(C)nc4c3)n2)cc1S(N)(=O)=O [Pazopanib] + Cc1nc(NC(=O)N2CCC[C@H]2C(N)=O)sc1-c1ccnc(C(C)(C)C(F)(F)F)c1 [Alpelisib] (partner 2 µM)
Outline: as §1

[4] = compound: Cc1ccc(Nc2nccc(N(C)c3ccc4c(C)n(C)nc4c3)n2)cc1S(N)(=O)=O [Pazopanib] + O=C(c1cc(Cc2n[nH]c(=O)c3ccccc23)ccc1F)N1CCN(C(=O)C2CC2)CC1 [Olaparib] (partner 8 µM)
Outline: as §1

Cell Line	relative viability ([1]; first compound 0.002 µM)	relative viability ([1]; first compound 0.006325 µM)	relative viability ([1]; first compound 0.06325 µM)	relative viability ([1]; first compound 0.2 µM)	relative viability ([2]; first compound 0.01 µM)	relative viability ([2]; first compound 0.03162 µM)	relative viability ([2]; first compound 0.1 µM)	relative viability ([2]; first compound 0.3162 µM)	relative viability ([2]; first compound 1 µM)	relative viability ([3]; first compound 0.01 µM)	relative viability ([3]; first compound 0.03162 µM)	relative viability ([3]; first compound 0.1 µM)	relative viability ([3]; first compound 0.3162 µM)	relative viability ([3]; first compound 1 µM)	relative viability ([4]; first compound 0.01 µM)	relative viability ([4]; first compound 0.03162 µM)	relative viability ([4]; first compound 0.1 µM)	relative viability ([4]; first compound 0.3162 µM)	relative viability ([4]; first compound 1 µM)
201T	1.04	1.03	1.09	1.02	0.961	1	0.961	0.908	0.926	0.959	1.06	1.02	0.998	1.05	0.863	0.865	0.85	0.825	0.822
A549	0.946	1.03	1.05	0.88						0.798	0.685	0.828	0.746	1.01	0.248	0.301	0.283	0.297	0.36
A-427	1.05	0.96	1.05	0.98	0.183	0.207	0.207	0.217	0.186	1.07	1.13	1.09	1.06	1.03	0.729	0.8	0.758	0.812	0.791
ABC-1	1.1	1.17	1.2	0.864	0.182	0.174		0.151	0.19	0.859	1.1	0.984	1.1	1.03	1.01	1.15	0.959	0.946	0.782
BEN	0.503	0.509	0.721	0.628	0.481	0.463	0.582	0.516	0.482	0.845	1.04	1.1	1.02	0.988	1.06	1.29	1.11	0.943	0.931
CAL-12T	0.702	0.714	1	0.698	0.247	0.327	0.312	0.297	0.294	1.21	1.32	1.11	1.35	1.27	0.854	0.783	0.694	0.74	0.707
COR-L23	0.79	0.931	0.914	0.781	0.236	0.173	0.202	0.214	0.152	0.752	0.957	0.993	0.925	0.717	0.35	0.332	0.366	0.299	0.34
COR-L 105	0.385	0.369	0.374	0.347	0.341	0.345	0.356	0.334	0.382	0.981	1.03	1.04	1.07	1.04	0.699	0.649	0.667	0.584	0.745
Calu-6	1	0.954	1.22	1.03						0.973	1.09	1.04	0.956	0.99	0.601	0.559	0.589	0.579	0.5
ChaGo-K-1					0.21	0.221	0.241	0.257	0.255						0.473	0.447	0.413	0.413	0.357
EBC-1	0.2	0.233	0.225	0.227						0.914	0.907	0.913	0.914	1	0.696	0.754	0.696	0.751	0.752
EKVX	0.222	0.217	0.349	0.234	0.355	0.383	0.435	0.422	0.448	0.726	0.887	0.923	0.896	1.03	0.766	1.05	0.863	0.867	0.911
EMC-BAC-2	0.797	0.852	0.918	0.806		0.302	0.302	0.226	0.278	0.702	0.764	0.808	0.767	0.747		0.476	0.457	0.43	0.43
EPLC-272H	0.917	1.05	0.957	0.654		0.352	0.167	0.21	0.241	0.734	0.966	1	0.991	0.804	0.87	0.792	1.06	0.944	0.845
H3255	0.222	0.268	0.263	0.21	0.489	0.629	0.986	0.656	0.734	0.612	0.743	0.833	0.695	0.741	0.583	0.541	0.627	0.564	0.564
HARA	0.88	0.887	0.406	0.378	0.09	0.119	0.603	0.0772	0.0838	0.82	0.779	0.846	0.818	0.982	0.938	0.778	0.958	1.26	0.795
HCC-15	0.797	0.916	0.922	0.901	0.435	0.502	0.411	0.394	0.37	0.788	0.931	0.885	0.909	0.986	0.689	0.671	0.697	0.723	0.672
HCC-44	0.969	0.903	1.12	1.06	0.872	0.913	0.926	0.843	0.78	0.664	0.806	0.766	0.74	0.793	0.991	0.995	1.02	0.995	1
HCC-78	0.74	0.709	0.597	0.63	0.334	0.429	0.472	0.517	0.415	0.284	0.406	0.3	0.35	0.388		0.87	0.778	0.906	0.995
HCC-366	1.01	1.01	1.08	1.01	0.124	0.132	0.0845	0.163	0.068	0.33	0.37	0.54	0.444	0.454	0.31	0.357	0.396	0.396	0.35

Cell Line	relative viability ([1]; first compound 0.002 µM)	relative viability ([1]; first compound 0.006325 µM)	relative viability ([1]; first compound 0.06325 µM)	relative viability ([1]; first compound 0.2 µM)	relative viability ([2]; first compound 0.01 µM)	relative viability ([2]; first compound 0.03162 µM)	relative viability ([2]; first compound 0.1 µM)	relative viability ([2]; first compound 0.3162 µM)	relative viability ([2]; first compound 1 µM)	relative viability ([3]; first compound 0.01 µM)	relative viability ([3]; first compound 0.03162 µM)	relative viability ([3]; first compound 0.1 µM)	relative viability ([3]; first compound 0.3162 µM)	relative viability ([3]; first compound 1 µM)	relative viability ([4]; first compound 0.01 µM)	relative viability ([4]; first compound 0.03162 µM)	relative viability ([4]; first compound 0.1 µM)	relative viability ([4]; first compound 0.3162 µM)	relative viability ([4]; first compound 1 µM)
HCC-827	0.214	0.186	0.202	0.184	0.436	0.44	0.42	0.414	0.433	0.949	0.943	1.02	0.944	1.01	0.675	0.644	0.691	0.706	0.673
HOP-62	0.929	0.987	0.856	0.91	0.366	0.388	0.307	0.431	0.286	0.68	1		1.23	1.07	0.411	0.454	0.518	0.383	0.288
IA-LM	0.897	0.67	0.77	0.721						0.665	0.856	0.876	0.669	0.509	0.719	0.909	0.925	0.774	0.658
LC-2-ad	0.969	0.697	0.49	0.495	0.469	0.444	0.516	0.467	0.471	0.844	0.884	0.916	0.866	0.891	0.796	0.684	0.705	0.778	0.682
LCLC-97TM1		1		0.786	0.222	0.221	0.185	0.195	0.166		0.236	0.272	0.234	0.243		0.313	0.534	0.293	0.252
LCLC-103H					0.456	0.464	0.46	0.467	0.479	0.782	0.823	1.03	0.973	1.06	0.723	0.699	0.769	0.79	0.799
LK-2	0.82	0.861	0.696	0.54		0.178	0.201	0.169	0.174	0.816	0.996	1.03	1.05	0.843	0.575	0.673	0.735	0.807	0.539
LOU-NH91	0.717	0.788	0.755	0.709	0.647	0.664	0.749	0.781	0.698	0.754	0.729	0.774	0.816	0.746	0.925	0.888	0.926	0.96	0.931
LU99A	0.98	1.13	0.951	0.868	0.272	0.3	0.277	0.262	0.233	0.428	0.505	0.416	0.517	0.544		0.243	0.313	0.275	0.267
NCI-H441					0.798	0.683	0.784	0.558	0.518	0.71	0.73	0.987	0.655	0.728	0.558	0.519	0.511	0.429	0.611
NCI-H522					0.568	0.454	0.493	0.646	0.58						0.587	0.617	0.678	0.707	0.642
NCI-H1299	0.956	0.968	0.979	0.934						1.07	0.976	1.12	1	1.06	1	0.961	0.934	0.993	0.865
NCI-H1563	0.86	0.856	0.885	0.727						0.902	0.868	0.978	0.935	0.929					
NCI-H1623					0.43	0.455	0.413	0.46	0.393										
NCI-H1648					0.387	0.57	0.398	0.459	0.476								0.61	0.515	0.419
NCI-H1650	0.735	0.811	0.636	0.62	0.47	0.382	0.443	0.539	0.312						0.895	0.838	0.723	0.852	0.844
NCI-H1703	0.989	0.787	0.339	0.313						0.338	0.293	0.216	0.279	0.278	0.465		0.223	0.244	0.194
NCI-H1792	0.854	0.85	0.92	0.847							0.703	0.748	0.69	0.69		0.384	0.435	0.483	0.384
NCI-H2342					0.481	0.554	0.544	0.496	0.388						0.385	0.443	0.481	0.386	0.365
SW 900					0.556	0.443	0.495	0.578	0.53						0.942	1.07		0.915	0.945
